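96-well plates; 48 h exposure; 5 concentrations. Endpoints by linear interpolation between flanking doses. Not reached: highest tested concentration assigned. TGI denotes the concentration required for complete inhibition of growth.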
Assays:
Test in all cases: inhibition of tumour cell growth, NCI panel, 48 h
786-0 renal = tested on: 786-0 renal
A498 renal = tested on: A498 renal
A549 NSCLC = tested on: A549 NSCLC
ACHN renal = tested on: ACHN renal
BT-549 breast = tested on: BT-549 breast
CAKI-1 renal = tested on: CAKI-1 renal
COLO 205 colon = tested on: COLO 205 colon
DU-145 prostate = tested on: DU-145 prostate
EKVX NSCLC = tested on: EKVX NSCLC
HCC-2998 colon = tested on: HCC-2998 colon
HCT-116 colon = tested on: HCT-116 colon
HCT-15 colon = tested on: HCT-15 colon
HL-60(TB) leukemia = tested on: HL-60(TB) leukemia
HOP-62 NSCLC = tested on: HOP-62 NSCLC
HOP-92 NSCLC = tested on: HOP-92 NSCLC
HS 578T breast = tested on: HS 578T breast
HT29 colon = tested on: HT29 colon
IGROV1 ovarian = tested on: IGROV1 ovarian
K-562 leukemia = tested on: K-562 leukemia
KM12 colon = tested on: KM12 colon
LOX IMVI melanoma = tested on: LOX IMVI melanoma
M14 melanoma = tested on: M14 melanoma
MALME-3M melanoma = tested on: MALME-3M melanoma
MCF7 breast = tested on: MCF7 breast
MDA-MB-231 breast = tested on: MDA-MB-231 breast
MDA-N = tested on: MDA-N
MOLT-4 leukemia = tested on: MOLT-4 leukemia
NCI-H226 lung = tested on: NCI-H226 lung
NCI-H23 lung = tested on: NCI-H23 lung
NCI-H460 lung = tested on: NCI-H460 lung
NCI-H522 lung = tested on: NCI-H522 lung
NCI/ADR-RES ovarian = tested on: NCI/ADR-RES ovarian
OVCAR-3 ovarian = tested on: OVCAR-3 ovarian
OVCAR-4 ovarian = tested on: OVCAR-4 ovarian
OVCAR-5 ovarian = tested on: OVCAR-5 ovarian
OVCAR-8 ovarian = tested on: OVCAR-8 ovarian
PC-3 prostate = tested on: PC-3 prostate
RPMI-8226 leukemia = tested on: RPMI-8226 leukemia
RXF 393 renal = tested on: RXF 393 renal
SF-268 CNS = tested on: SF-268 CNS
SF-295 CNS = tested on: SF-295 CNS
SF-539 CNS = tested on: SF-539 CNS
SK-MEL-2 melanoma = tested on: SK-MEL-2 melanoma
SK-MEL-28 melanoma = tested on: SK-MEL-28 melanoma
SK-MEL-5 melanoma = tested on: SK-MEL-5 melanoma
SK-OV-3 ovarian = tested on: SK-OV-3 ovarian
SN12C renal = tested on: SN12C renal
SNB-19 CNS = tested on: SNB-19 CNS
SNB-75 CNS = tested on: SNB-75 CNS
SR leukemia = tested on: SR leukemia
SW-620 colon = tested on: SW-620 colon
T-47D breast = tested on: T-47D breast
TK-10 renal = tested on: TK-10 renal
U251 CNS = tested on: U251 CNS
UACC-257 melanoma = tested on: UACC-257 melanoma
UACC-62 melanoma = tested on: UACC-62 melanoma
UO-31 renal = tested on: UO-31 renal
CCRF-CEM leukemia = tested on: CCRF-CEM leukemia
MDA-MB-435 = tested on: MDA-MB-435

## CC(C)(C)c1cc(OCc2nnc3sc(-c4ccc(Cl)cc4)nn23)c(Cl)cc1OCc1nnc2sc(-c3ccc(Cl)cc3)nn12
786-0 renal
  TGI: 16.5 µM
A498 renal
  TGI: 26.1 µM
A549 NSCLC
  TGI: 20.4 µM
ACHN renal
  TGI: 24.4 µM
BT-549 breast
  TGI: 34.6 µM
CAKI-1 renal
  TGI: 11.4 µM
COLO 205 colon
  TGI: 29.3 µM
DU-145 prostate
  TGI: 31.3 µM
EKVX NSCLC
  TGI: 97.9 µM
HCC-2998 colon
  TGI: 9.72 µM
HCT-116 colon
  TGI: 26 µM
HCT-15 colon
  TGI: 38.8 µM
HL-60(TB) leukemia
  TGI: 7.36 µM
HOP-62 NSCLC
  TGI: 51.4 µM
HOP-92 NSCLC
  TGI: 16.3 µM
HS 578T breast
  TGI: > 100 µM
HT29 colon
  TGI: 83.6 µM
IGROV1 ovarian
  TGI: 21.4 µM
K-562 leukemia
  TGI: 12.5 µM
KM12 colon
  TGI: 11.1 µM
LOX IMVI melanoma
  TGI: 54.2 µM
M14 melanoma
  TGI: 88.6 µM
MALME-3M melanoma
  TGI: 21.8 µM
MCF7 breast
  TGI: 10.9 µM
MDA-MB-231 breast
  TGI: 38.3 µM
MDA-N
  TGI: 3.46 µM
MOLT-4 leukemia
  TGI: 31.2 µM
NCI-H226 lung
  TGI: 54.3 µM
NCI-H23 lung
  TGI: 20.6 µM
NCI-H460 lung
  TGI: 12.9 µM
NCI-H522 lung
  TGI: 29.9 µM
NCI/ADR-RES ovarian
  TGI: 35.6 µM
OVCAR-3 ovarian
  TGI: 8.73 µM
OVCAR-4 ovarian
  TGI: 57.8 µM
OVCAR-5 ovarian
  TGI: 88.9 µM
OVCAR-8 ovarian
  TGI: 19.8 µM
PC-3 prostate
  TGI: > 100 µM
RPMI-8226 leukemia
  TGI: 23.6 µM
RXF 393 renal
  TGI: 19.3 µM
SF-268 CNS
  TGI: > 100 µM
SF-295 CNS
  TGI: 18.2 µM
SF-539 CNS
  TGI: 15.2 µM
SK-MEL-2 melanoma
  TGI: 44.9 µM
SK-MEL-28 melanoma
  TGI: 33.3 µM
SK-MEL-5 melanoma
  TGI: 3.47 µM
SK-OV-3 ovarian
  TGI: 27 µM
SN12C renal
  TGI: > 100 µM
SNB-19 CNS
  TGI: 87.6 µM
SNB-75 CNS
  TGI: 9.8 µM
SR leukemia
  TGI: 2.91 µM
SW-620 colon
  TGI: 32.9 µM
T-47D breast
  TGI: 14.9 µM
TK-10 renal
  TGI: 36.8 µM
U251 CNS
  TGI: 28.7 µM
UACC-257 melanoma
  TGI: 40.7 µM
UACC-62 melanoma
  TGI: 39.1 µM
UO-31 renal
  TGI: 26.1 µM

## Cc1ccc(S(=O)(=O)NC(C(=O)O)C(C)C)cc1 (stereo not given)
786-0 renal
  TGI: > 100 µM
A498 renal
  TGI: > 100 µM
A549 NSCLC
  TGI: > 100 µM
ACHN renal
  TGI: > 100 µM
BT-549 breast
  TGI: > 100 µM
CAKI-1 renal
  TGI: > 100 µM
CCRF-CEM leukemia
  TGI: > 100 µM
DU-145 prostate
  TGI: > 100 µM
EKVX NSCLC
  TGI: > 100 µM
HCC-2998 colon
  TGI: > 100 µM
HCT-116 colon
  TGI: > 100 µM
HCT-15 colon
  TGI: > 100 µM
HOP-62 NSCLC
  TGI: > 100 µM
HOP-92 NSCLC
  TGI: > 100 µM
HS 578T breast
  TGI: > 100 µM
HT29 colon
  TGI: > 100 µM
IGROV1 ovarian
  TGI: > 100 µM
K-562 leukemia
  TGI: > 100 µM
KM12 colon
  TGI: > 100 µM
LOX IMVI melanoma
  TGI: > 100 µM
M14 melanoma
  TGI: > 100 µM
MALME-3M melanoma
  TGI: > 100 µM
MDA-MB-231 breast
  TGI: > 100 µM
MDA-MB-435
  TGI: > 100 µM
MDA-N
  TGI: > 100 µM
MOLT-4 leukemia
  TGI: > 100 µM
NCI-H226 lung
  TGI: > 100 µM
NCI-H23 lung
  TGI: > 100 µM
NCI-H460 lung
  TGI: > 100 µM
NCI-H522 lung
  TGI: > 100 µM
NCI/ADR-RES ovarian
  TGI: > 100 µM
OVCAR-3 ovarian
  TGI: > 100 µM
OVCAR-4 ovarian
  TGI: > 100 µM
OVCAR-5 ovarian
  TGI: > 100 µM
OVCAR-8 ovarian
  TGI: > 100 µM
PC-3 prostate
  TGI: > 100 µM
RXF 393 renal
  TGI: > 100 µM
SF-268 CNS
  TGI: > 100 µM
SF-295 CNS
  TGI: > 100 µM
SK-MEL-2 melanoma
  TGI: > 100 µM
SK-MEL-28 melanoma
  TGI: > 100 µM
SK-MEL-5 melanoma
  TGI: > 100 µM
SN12C renal
  TGI: > 100 µM
SNB-19 CNS
  TGI: > 100 µM
SNB-75 CNS
  TGI: > 100 µM
SR leukemia
  TGI: > 100 µM
SW-620 colon
  TGI: > 100 µM
T-47D breast
  TGI: > 100 µM
TK-10 renal
  TGI: > 100 µM
U251 CNS
  TGI: > 100 µM
UACC-257 melanoma
  TGI: > 100 µM
UACC-62 melanoma
  TGI: > 100 µM
UO-31 renal
  TGI: > 100 µM

— PubChem BioAssay (NCI)
